Data on eight molecules can be found in paper PMC10793205, “Differential transmetallation of complexes of the anti-cancer thiosemicarbazone, Dp4e4mT: effects on anti-proliferative efficacy, redox activity, oxy-myoglobin and oxy-hemoglobin oxidation” (Chemical Science, 2023).

SMILES strings stand for the structures. Read-outs that look alike come from different tables or passages of the source.

The conditions of data set [1]: mice, cited from earlier work.
Data set [2] in a line: Transmetallation kinetics with Cu(OAc)2 in aqueous solution pH 7.4 / pH 5 (UV-vis). The class given is physicochemical. The conditions noted are these: for Observed pseudo first order rate constant kobs, Cu(OAc)2 in water pH 7.4: 10-fold excess of Cu(OAc)2, water pH 7.4, 25 °C; for Observed pseudo first order rate constant kobs, Cu(OAc)2 in water pH 5 (only or first step): 10-fold excess of Cu(OAc)2, water pH 5, 25 °C. As to the method: Transmetallation studies were also conducted using UV-vis spectroscopy in aqueous solutions at pH 7.4 (phosphate buffer; 100 mM) and pH 5 (acetate buffer; 150 mM) to simulate physiological conditions, as thiosemicarbazones of this class transverse the cytosol (pH 7.4) to target lysosomes (pH 5), where transmetallation occurs.[25,26,28] Studies in aqueous solution were important to compare the results performed in DMSO above so as to interpret the biological studies and particularly the redox assays below where the same pH values were employed.
Transmetallation of the complexes of Dp4e4mT with Cu(OAc)2 in water was possible as it is soluble in aqueous solution at pH 7.4 and 5, while FeCl3 precipitates under these conditions and cannot be assessed. […] The UV-vis spectra of all complexes in water (ca. 10 μM solutions) are compared in Fig. S17 ^† and mirror the spectra in DMSO (see Experimental section). The spectra of [Fe(Dp4e4mT)2]^+, [Co(Dp4e4mT)2]^+, and [Pd(Dp4e4mT)Cl] are similar, and display an asymmetric maximum around 393 nm with a prominent shoulder (∼450 nm). The [Ni(Dp4e4mT)2] spectrum is similarly asymmetric, although the peak intensities are reversed relative to the Fe(III), Co(III), and Pd(II) spectra (Fig. S17 ^†). […] The spectrum of [Zn(Dp4e4mT)2] is unique in this group, with a symmetrical peak at ∼400 nm.
Table S2. Observed pseudo first order rate constants (k obs, s−1) for reactions of each Dp4e4mT complex with a 10-fold excess of Cu(OAc) 2 or FeCl 3 in DMSO or water (pH 7.4 or 5.0) at 25 °C. […]
[Co(Dp4e4mT)2]+ No reaction No reaction No reaction No reaction […]
a Reaction could not be deciphered by UV-Vis spectroscopy; bchlorido ligand hydrolysis

For `CN(C)C(=S)NN=C(c1ccccn1)c1ccccn1` [Dp44mT, di-2-pyridylketone 4,4-dimethyl-3-thiosemicarbazone, reference compound], the cardiac fibrosis result in data set [1] (intravenous, intensive non-optimal doses) is on record as “demonstrated cardiac fibrosis”.

Turning to `CCN(C)C([S-])=NN=C(c1ccccn1)c1ccccn1.CCN(C)C([S-])=NN=C(c1ccccn1)c1ccccn1.[Ni+2]` [[Ni(Dp4e4mT)2]], the “Observed pseudo first order rate constant kobs, Cu(OAc)2 in water pH 7.4” value in data set [2] is “No reaction”. The “t½, faster step with Cu(OAc)2 at pH 5” value in data set [2] (aqueous pH 5, first of two consecutive first order reactions) is given as roughly 4 min.

`CCN(C)C([S-])=NN=C(c1ccccn1)c1ccccn1.CCN(C)C([S-])=NN=C(c1ccccn1)c1ccccn1.[Ga+3]` [[Ga(Dp4e4mT)2]^+]: in data set [2], the “Observed pseudo first order rate constant kobs, Cu(OAc)2 in water pH 5 (only or first step)” value is greater than 0.1 s−1 and the “Observed pseudo first order rate constant kobs, Cu(OAc)2 in water pH 7.4” value is greater than 0.1 s−1. In addition, the “t½, spectral change without added Cu(OAc)2” value in data set [2] (aqueous pH 7.4, no Cu(OAc)2) was roughly 0.5 min. The kobs, spectral change without added Cu(OAc)2 in data set [2] (aqueous pH 7.4, no Cu(OAc)2, λmax shift ∼415 nm to 400 nm) was 0.022 s⁻¹.

Consider `CCN(C)C([S-])=NN=C(c1ccccn1)c1ccccn1.CCN(C)C([S-])=NN=C(c1ccccn1)c1ccccn1.[Fe+3]` [[Fe(Dp4e4mT)2]^+], for which, in data set [2] (aqueous, pH 7.4 and 5.0), the “kobs, decay of the 500 nm shoulder after Cu(OAc)2” value was determined as 0.00073 s⁻¹ and the “t½, decay of the 500 nm shoulder after Cu(OAc)2” value is listed as roughly 15 min.

Take `CN(C(=S)NN=C(c1ccccn1)c1ccccn1)C1CCCCC1` [DpC, di-2-pyridylketone 4-cyclohexyl-4-methyl-3-thiosemicarbazone, reference compound]: the cardiac fibrosis result in data set [1] was “did not induce cardiac fibrosis in mice”.

As for `CCN(C)C(=S)NN=C(c1ccccn1)c1ccccn1` [Dp4e4mT, di-2-pyridylketone-4-ethyl-4-methyl-3-thiosemicarbazone], in data set [1], the cardiac fibrosis entry is “did not induce cardiac fibrosis in mice”.

On to `CCN(C)C([S-])=NN=C(c1ccccn1)c1ccccn1.CCN(C)C([S-])=NN=C(c1ccccn1)c1ccccn1.[Zn+2]` [[Zn(Dp4e4mT)2]], for which, in data set [2], the “Observed pseudo first order rate constant kobs, Cu(OAc)2 in water pH 5 (only or first step)” value is on record as greater than 0.1 s−1 and the “Observed pseudo first order rate constant kobs, Cu(OAc)2 in water pH 7.4” value is greater than 0.1 s−1.

`CCN(C)C([S-])=NN=C(c1ccccn1)c1ccccn1.CCN(C)C([S-])=NN=C(c1ccccn1)c1ccccn1.[Co+3]` [[Co(Dp4e4mT)2]^+]: in data set [2], the “Observed pseudo first order rate constant kobs, Cu(OAc)2 in water pH 5 (only or first step)” value was “No reaction” and the “Observed pseudo first order rate constant kobs, Cu(OAc)2 in water pH 7.4” value is recorded as “No reaction”.
